The results in this text go back to patent publication EP4644383A1 (Jiangsu Yahong Meditech Co., Ltd., priority 2022, dated 2024).

Molecules are shown by their SMILES. Like-named read-outs stand apart in the source and are kept apart here.

One test addresses T1, FGFR4 (Homo sapiens, UniProt P22455).
T1 construct: FGFR4's cytoplasmic domain [460-802 (terminal) amino acids]; purchased Carna 08-136
Briefly: FGFR4 kinase activity inhibition assay (LanthaScreen TR-FRET). Type of test: biochemical. An outline of the steps: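 GST-tagged cytoplasmic domains (FGFR2 aa 399-821; FGFR4 aa 460-802) were preincubated 10 min at 23 °C with compound (top 1 µM, threefold dilutions). Then 28 nM fluorescein-poly GT and 28 µM ATP were added for 30 min at 23 °C in HEPES pH 7.5 buffer. Tb-PY20 TR-FRET 520/495 ratio gave % inhibition versus DMSO and no-enzyme controls.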
(In general: TR-FRET usually uses a lanthanide donor and a delayed reading to cut background.)

The test system of another test is Ba/F3-BCR-FGFR1 cells. Description: Inhibition of proliferation activity of Ba/F3-BCR-FGFR1 cells (CellTiter-Glo). As to conditions: read-out: IC50 (nM) Ba/F3-BCR-FGFR1. The class given is cell-based. As to the method: The present experiment used CellTiter-Glo® Luminescent Cell Viability Assay (Promega: G7573) kit, which was a homogeneous cell viability detection method and determined the cell viability of cultured cells by quantifying ATP. • ① Ba/F3-BCR-FGFR1 or Ba/F3-FGFR3-BAIAP2L1 cells were cultured in 1640 complete medium (Gibco: 11879020) (10% FBS (Gibco: 10091-148)+1% Pen Strep (Gibco: 15140122)) under the condition of 37°C and 5% CO2. • (2) The cells in logarithmic growth phase were harvested and counted using a […]. The trypan blue exclusion method was used to detect cell viability to ensure the cell viability was above 90%. • ③ The cell density was adjusted using 1640 complete medium, and then, the cells were seeded into a 96-well cell culture plate at 90 µL/well with a total of 2000 cells. • ④ A 10-fold drug solution was prepared starting from a maximum drug concentration of 10 µM and 4-fold serially diluted into10 concentrations. Then, 10 µL of each of the serially diluted compounds was transferred to the corresponding experimental wells of a 96-well cell plate, with two replicates for each drug concentration. • ⑤ The 96-well plate with the cells that had been treated with the drugs was placed under the condition of 37°C and 5% CO2 to be further cultured for 72 hours, and then analyzed by CTG. • ⑥ The CTG reagent was melted and the cell plate was equilibrated to room temperature for 30 minutes. • ⑦ 50 µL of the CTG solution was added to each well. • ⑧ The cell plate was shaken on an orbital shaker for 5 minutes to lyse the cells. • ⑨ The cell plate was placed at room temperature for 20 minutes to stabilize the luminescence signal. The luminescence values were read to collect the data. • ⑩ The data were analyzed using XLFit excel plugin version 5.5.0.5, and fitted with non-linear S-curve regression to obtain the dose-response curves and thus calculate the IC50 values. Y = Bottom + (Top-Bottom)/((1+(IC50/X))^(∧) HillSlope [formula]
"Top" refers to the maximum response, "Bottom" refers to the minimum response, and "HillSlope" refers to the slope of the curve.
"Max" represents the average value of the cell control+DMSO, and "Min" represents the average value of the medium control+DMSO.

For a further test, the target named is T2, FGFR2 (Homo sapiens, UniProt P21802).
T2 construct: FGFR2's cytoplasmic domain [399-821 (terminal) amino acids]; purchased Carna 08-134
Briefly: FGFR2 kinase activity inhibition assay (LanthaScreen TR-FRET). Type of test: biochemical. An outline of the steps: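 GST-fused FGFR2 cytoplasmic domain (aa 399-821) was run as in the FGFR1 protocol: preincubated 10 min at 23 °C with compound (3-fold series from 1 µM) in 50 mM HEPES pH 7.5, 10 mM MgCl2, 4 mM DTT, 1% DMSO. A 2× mix of 28 nM fluorescein-poly GT/28 µM ATP then reacted 30 min. Tb-PY20/EDTA quench preceded the TR-FRET 520/495 read.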

The next test has as its target T3, FGFR3 (Homo sapiens, UniProt P22607).
T3 construct: FGFR3's cytoplasmic domain [436-806 (terminal) amino acids]; purchased Carna 08-135
Description: FGFR3 kinase activity inhibition assay (LanthaScreen TR-FRET). Type of test: biochemical. The settings on record: for Selectivity (X) FGFR1/FGFR3: ratio of IC50 FGFR1/FGFR3, selectivity towards FGFR3; for Selectivity (X) FGFR2/FGFR3: ratio of IC50 FGFR2/FGFR3, selectivity towards FGFR3; for Selectivity (X) FGFR4/FGFR3: ratio of IC50 FGFR4/FGFR3, selectivity towards FGFR3. An outline of the steps:
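Read-out is TR-FRET, with the 520 nm/495 nm emission ratio normalised to DMSO (max) and enzyme-free (min) controls. Enzyme was the FGFR3 cytoplasmic domain, residues 436-806. EDTA (10 mM) stopped the reaction, followed by 60 min at 22 °C before reading.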

Setting [1] is: FGFR4 kinase, TR-FRET, read-out: IC50 (nM) FGFR4.
Setting [2] is: FGFR2 kinase, TR-FRET, read-out: IC50 (nM) FGFR2.
Where [3] appears, read: FGFR3 kinase, TR-FRET, read-out: IC50 (nM) FGFR3.
Setting [4] is: Ba/F3-BCR-FGFR1 cells, 72 hours, CTG.

T2 sequence (P21802 399-821): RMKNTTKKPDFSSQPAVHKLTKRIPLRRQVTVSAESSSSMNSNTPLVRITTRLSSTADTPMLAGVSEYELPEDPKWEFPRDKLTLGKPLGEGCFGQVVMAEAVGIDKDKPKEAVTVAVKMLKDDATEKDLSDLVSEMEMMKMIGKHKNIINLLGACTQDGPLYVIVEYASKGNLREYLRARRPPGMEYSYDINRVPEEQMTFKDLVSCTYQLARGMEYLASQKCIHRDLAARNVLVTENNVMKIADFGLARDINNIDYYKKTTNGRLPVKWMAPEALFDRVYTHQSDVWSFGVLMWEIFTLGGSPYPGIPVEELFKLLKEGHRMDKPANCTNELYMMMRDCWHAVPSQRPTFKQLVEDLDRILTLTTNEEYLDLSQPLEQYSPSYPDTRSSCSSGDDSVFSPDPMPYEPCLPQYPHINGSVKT
T3 sequence (P22607 436-806): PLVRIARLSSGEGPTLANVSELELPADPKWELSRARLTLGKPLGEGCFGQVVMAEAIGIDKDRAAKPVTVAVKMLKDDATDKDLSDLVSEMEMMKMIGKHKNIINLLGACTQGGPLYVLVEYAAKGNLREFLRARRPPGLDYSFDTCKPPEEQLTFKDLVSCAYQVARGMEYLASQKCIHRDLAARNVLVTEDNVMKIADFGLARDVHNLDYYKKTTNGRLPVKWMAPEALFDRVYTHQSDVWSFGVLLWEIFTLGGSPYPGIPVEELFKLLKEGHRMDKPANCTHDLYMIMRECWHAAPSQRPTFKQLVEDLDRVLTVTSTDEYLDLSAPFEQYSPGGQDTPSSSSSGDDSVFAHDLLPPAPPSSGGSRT
T1 sequence (P22455 460-802): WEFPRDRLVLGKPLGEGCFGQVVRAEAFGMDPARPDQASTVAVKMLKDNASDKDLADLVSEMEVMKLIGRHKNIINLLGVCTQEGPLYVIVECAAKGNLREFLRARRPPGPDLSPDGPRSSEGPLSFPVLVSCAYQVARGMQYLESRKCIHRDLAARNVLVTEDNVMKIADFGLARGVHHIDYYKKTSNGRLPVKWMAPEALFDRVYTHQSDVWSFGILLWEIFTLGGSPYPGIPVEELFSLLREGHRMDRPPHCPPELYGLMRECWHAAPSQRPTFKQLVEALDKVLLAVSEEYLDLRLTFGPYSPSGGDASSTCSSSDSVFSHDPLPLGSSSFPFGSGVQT

For `C[C@@H](Oc1ccc2[nH]nc(-c3ccc(S(C)(=N)=O)nc3)c2c1)c1c(Cl)cncc1Cl` (stereo partly drawn) [Comparative Example 85, (5-(5-((R)-1-(3,5-dichloropyridin-4-yl)ethoxy)-1H-indazol-3-yl)pyridin-2-yl)(imino)(methyl)-sulfanone, reference compound], the results for the IC50 on FGFR4 (setting [1]) and in the test on Ba/F3-BCR-FGFR1 cells (72 h) were 10 to 100 nM and 615 nM, respectively.
Turning to `C[C@@H](Oc1cc(F)c2[nH]nc(-c3cnn(CCN4CCOCC4)c3)c2c1)c1c(Cl)cncc1Cl` [Example 12, (R)-4-(2-(4-(5-(1-(3,5-dichloropyridin-4-yl)ethoxy)-7-fluoro-1H-indazol-3-yl)-1H-pyrazol-1-yl)ethyl)morph oline], the IC50 is 1 to 10 nM on FGFR2 (setting [2]), 1 to 10 nM on FGFR3 (setting [3]), 10 to 100 nM at FGFR4 (setting [1]) and 592 nM in the test on Ba/F3-BCR-FGFR1 cells (setting [4]). Moreover, at FGFR3, the “Selectivity (X) FGFR1/FGFR3” value is “B (B represents 20 ≤ multiple X<50)”. For the same molecule, the “Selectivity (X) FGFR2/FGFR3” value on FGFR3 is “A (A represents 1 ≤ multiple X<20)”. Moreover, the “Selectivity (X) FGFR4/FGFR3” value at FGFR3 is recorded as “C (C represents 50 ≤ multiple X<100)”.
On to `C[C@@H](Oc1ccc2[nH]nc(-c3cnn(C)c3)c2n1)c1c(Cl)cncc1Cl` [Example 29, (R)-5-(1-(3,5-dichloropyridin-4-yl)ethoxy)-3-(1-methyl-1H-pyrazol-4-yl)-1H-pyrazolo[4,3-b]pyridine], for which the IC50 was under 1 nM on FGFR2 (setting [2]), under 1 nM at FGFR3 (setting [3]), 1 to 10 nM on FGFR4 (setting [1]) and 38 nM in the test with Ba/F3-BCR-FGFR1 cells (setting [4]). Besides, the “Selectivity (X) FGFR1/FGFR3” value on FGFR3 is given as “A (A represents 1 ≤ multiple X<20)”. Further, on FGFR3, the “Selectivity (X) FGFR2/FGFR3” value is “A (A represents 1 ≤ multiple X<20)”. Further, the “Selectivity (X) FGFR4/FGFR3” value on FGFR3 is on record as “A (A represents 1 ≤ multiple X<20)”.
In the case of `C[C@@H](Oc1ccc2[nH]nc(-c3cnn(CCN4CCN(C)C(=O)C4)c3)c2n1)c1c(Cl)cncc1Cl` [Example 54, (R)-4-(2-(4-(5-(1-(3,5-dichloropyridin-4-yl)ethoxy)-1H-pyrazolo[4,3-b]pyridin-3-yl)-1H-pyrazol-1-yl)ethyl)-1-methylpiperazin-2-one], the values for the IC50 at FGFR3 (setting [3]) and with Ba/F3-BCR-FGFR1 cells (setting [4]) were under 1 nM and 177 nM, respectively. Besides, the “Selectivity (X) FGFR1/FGFR3” value on FGFR3 was “A (A represents 1 ≤ multiple X<20)”.
Turning to `C[C@@H](Oc1ccc2[nH]nc(-c3cnn(CCN4CCS(=O)(=O)CC4)c3)c2n1)c1c(Cl)cncc1Cl` [Example 55, (R)-4-(2-(4-(5-(1-(3,5-dichloropyridin-4-yl)ethoxy)-1H-pyrazolo[4,3-b]pyridin-3-yl)-1H-pyrazol-1-yl)ethyl)thiomorph oline 1,1-dioxide], the IC50 was under 1 nM on FGFR3 (setting [3]) and 88.5 nM in the test on Ba/F3-BCR-FGFR1 cells (setting [4]). In addition, the “Selectivity (X) FGFR1/FGFR3” value on FGFR3 is recorded as “A (A represents 1 ≤ multiple X<20)”.
`CC(Oc1ccc2[nH]nc(-c3cnn(C)c3)c2c1)c1cccc2ncccc12` (stereo not drawn) [Example 88, 5-(1-((3-(1-methyl-1H-pyrazol-4-yl)-1H-indazol-5-yl)oxy)ethyl)quin oline]: the IC50 is 1 to 10 nM on FGFR2 (setting [2]), 1 to 10 nM on FGFR3 (setting [3]), 10 to 100 nM at FGFR4 (setting [1]) and 3420 nM in the test on Ba/F3-BCR-FGFR1 cells (setting [4]). Besides, the “Selectivity (X) FGFR1/FGFR3” value at FGFR3 was “A (A represents 1 ≤ multiple X<20)”. In addition, on FGFR3, the “Selectivity (X) FGFR2/FGFR3” value is on record as “A (A represents 1 ≤ multiple X<20)”. Further, the “Selectivity (X) FGFR4/FGFR3” value on FGFR3 is “C (C represents 50 ≤ multiple X<100)”.
As to `CC(Oc1ccc2[nH]nc(-c3cnn(C)c3)c2c1)c1cccc2nccnc12` (stereo not drawn) [Example 92, 5-(1-((3-(1-methyl-1H-pyrazol-4-yl)-1H-indazol-5-yl)oxy)ethyl)quin oxaline], the IC50 was 1 to 10 nM at FGFR2 (setting [2]), under 1 nM on FGFR3 (setting [3]), 1 to 10 nM at FGFR4 (setting [1]) and 98.6 nM in the test on Ba/F3-BCR-FGFR1 cells (setting [4]). The “Selectivity (X) FGFR1/FGFR3” value on FGFR3 is “A (A represents 1 ≤ multiple X<20)”. The “Selectivity (X) FGFR2/FGFR3” value at FGFR3 is reported as “A (A represents 1 ≤ multiple X<20)”. Besides, the “Selectivity (X) FGFR4/FGFR3” value at FGFR3 is listed as “A (A represents 1 ≤ multiple X<20)”.
For the molecule `Cc1ccc2ncccc2c1C(C)Oc1ccc2[nH]nc(-c3cnn(C)c3)c2c1` (stereo not drawn) [Example 95, 6-methyl-5-(1-((3-(1-methyl-1H-pyrazol-4-yl)-1H-indazol-5-yl)oxy)ethyl)quinolinee], the IC50 against FGFR2 was 1 to 10 nM; against FGFR3 it was 1 to 10 nM; at FGFR4 it was 10 to 100 nM; in the test on Ba/F3-BCR-FGFR1 cells (setting [4]), 406 nM. For the same molecule, at FGFR3, the “Selectivity (X) FGFR1/FGFR3” value is recorded as “C (C represents 50 ≤ multiple X<100)”. Further, the “Selectivity (X) FGFR2/FGFR3” value on FGFR3 was “A (A represents 1 ≤ multiple X<20)”. Also, the “Selectivity (X) FGFR4/FGFR3” value at FGFR3 is listed as “C (C represents 50 ≤ multiple X<100)”.
On to `CC(Oc1ccc2[nH]nc(-c3cnn(C)c3)c2c1)c1cccn2ncnc12` (stereo not drawn) [Example 101, 8-(1-((3-(1-methyl-1H-pyrazol-4-yl)-1H-indazol-5-yl)oxy)ethyl)-[1,2,4]triazolo[1,5-a]pyridine], for which the IC50 was 1 to 10 nM on FGFR3 (setting [3]) and 246 nM in the test with Ba/F3-BCR-FGFR1 cells (setting [4]). Moreover, the “Selectivity (X) FGFR1/FGFR3” value at FGFR3 is listed as “A (A represents 1 ≤ multiple X<20)”.
For `CC(Oc1ccc2[nH]nc(-c3cnn(C)c3)c2c1)c1c(C(F)F)ccc2ncccc12` (stereo not drawn) [Example 127, 6-(difluoromethyl)-5-(1-((3-(1-methyl-1H-pyrazol-4-yl)-1H-indazol-5-yl)oxy)ethyl)quinoline], the IC50 on FGFR2 (setting [2]) was 1 to 10 nM; on FGFR3 (setting [3]) it was under 1 nM; at FGFR4 (setting [1]), over 100 nM; in the test with Ba/F3-BCR-FGFR1 cells (setting [4]), 941 nM. In addition, the “Selectivity (X) FGFR1/FGFR3” value at FGFR3 was “C (C represents 50 ≤ multiple X<100)”. Further, the “Selectivity (X) FGFR2/FGFR3” value on FGFR3 is listed as “A (A represents 1 ≤ multiple X<20)”. The “Selectivity (X) FGFR4/FGFR3” value on FGFR3 is recorded as “C (C represents 50 ≤ multiple X<100)”.
As for `CC(Oc1ccc2[nH]nc(-c3cnn(C)c3)c2c1)c1c(CF)ccc2ncccc12` (stereo not drawn) [Example 130, 6-(fluoromethyl)-5-(1-((3-(1-methyl-1H-pyrazol-4-yl)-1H-indazol-5-yl)oxy)ethyl)q uinoline], the IC50 on FGFR2 (setting [2]) is 1 to 10 nM; at FGFR4 (setting [1]), 10 to 100 nM; in the test with Ba/F3-BCR-FGFR1 cells (setting [4]), 1190 nM.
Regarding `CC(Oc1ccc2[nH]nc(-c3cnn(C)c3)c2c1)c1cc(Cl)cc2nccnc12` (stereo not drawn) [Example 136, 7-chloro-5-(1-((3-(1-methyl-1H-pyrazol-4-yl)-1H-indazol-5-yl)oxy)ethyl)qu inoxaline], the IC50 is 1 to 10 nM at FGFR2 (setting [2]), under 1 nM on FGFR3 (setting [3]), 10 to 100 nM on FGFR4 (setting [1]) and 377 nM with Ba/F3-BCR-FGFR1 cells (setting [4]). For the same molecule, the “Selectivity (X) FGFR1/FGFR3” value on FGFR3 was “B (B represents 20 ≤ multiple X<50)”. The “Selectivity (X) FGFR2/FGFR3” value at FGFR3 was “A (A represents 1 ≤ multiple X<20)”. The “Selectivity (X) FGFR4/FGFR3” value on FGFR3 is “C (C represents 50 ≤ multiple X<100)”.
On to `CC(Oc1cc2c(-c3cnn(C)c3)n[nH]c2cc1F)c1cc(Cl)cc2nccnc12` (stereo not drawn) [Example 227, 7-chloro-5-(1-((6-fluoro-3-(1-methyl-1H-pyrazol-4-yl)-1H-indazol-5-yl)oxy)ethyl)qu inoxaline], for which the IC50 at FGFR3 (setting [3]) is under 1 nM; in the test on Ba/F3-BCR-FGFR1 cells (setting [4]), 390 nM. Further, the “Selectivity (X) FGFR1/FGFR3” value on FGFR3 was “A (A represents 1 ≤ multiple X<20)”.
